pIC50, pKi: −log10 of the molar value. Values after ≈ are worked out from the molar mass of the structure shown. Active and inactive are the calls of the source. The rule behind the calls is not given here.
Legend:
[1] = Solubility of the compound in water at pH 7.4; type: physicochemical
[2] = system: MEG-01; test: cells; conditions: Homo sapiens, MEG-01, 72 h
Description: Antiproliferative activity against human MEG01 cells under hypoxic condition after 72 hrs by using CyQUANT GR dye

[3] = system: MEG-01; test: cells; conditions: Homo sapiens, MEG-01, 72 h; remark: listed apart in the source
Description: Antiproliferative activity against human MEG01 cells under normoxic condition after 72 hrs by using CyQUANT GR dye

[4] = Metabolic stability in human liver microsomes assessed as parent compound remaining after 60 mins by LC-MS analysis; type: ADME, Microsome; conditions: read-out: Stability
[5] = target: T1, Signal transducer and activator of transcription 5A (Homo sapiens) (UniProt P42229); test: Inhibition of STAT5 phosphorylation in human K562 cells under hypoxic condition after 3 hrs by Western blotting; type: cell-based
T1 sequence (whole entry): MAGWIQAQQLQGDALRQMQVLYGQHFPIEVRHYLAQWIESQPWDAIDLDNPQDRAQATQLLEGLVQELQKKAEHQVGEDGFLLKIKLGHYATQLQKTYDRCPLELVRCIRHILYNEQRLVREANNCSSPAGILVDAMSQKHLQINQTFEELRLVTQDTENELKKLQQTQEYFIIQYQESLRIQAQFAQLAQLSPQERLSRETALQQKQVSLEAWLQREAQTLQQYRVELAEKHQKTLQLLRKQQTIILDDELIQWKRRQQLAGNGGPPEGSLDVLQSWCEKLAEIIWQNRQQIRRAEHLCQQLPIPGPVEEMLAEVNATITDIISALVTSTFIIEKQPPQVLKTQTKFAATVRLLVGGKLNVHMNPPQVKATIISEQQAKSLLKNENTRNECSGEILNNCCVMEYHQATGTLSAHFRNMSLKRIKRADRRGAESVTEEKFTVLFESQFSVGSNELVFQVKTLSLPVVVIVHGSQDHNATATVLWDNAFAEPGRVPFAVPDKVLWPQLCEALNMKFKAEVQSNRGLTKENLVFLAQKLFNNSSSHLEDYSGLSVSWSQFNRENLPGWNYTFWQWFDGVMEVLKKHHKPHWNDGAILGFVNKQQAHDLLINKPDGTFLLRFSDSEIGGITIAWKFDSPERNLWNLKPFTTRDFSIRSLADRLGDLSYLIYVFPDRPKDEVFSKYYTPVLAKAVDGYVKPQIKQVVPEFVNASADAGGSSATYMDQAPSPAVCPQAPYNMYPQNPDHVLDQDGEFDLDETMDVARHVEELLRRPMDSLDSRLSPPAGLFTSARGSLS

[6] = target: T1, Signal transducer and activator of transcription 5A (Homo sapiens); test: Inhibition of STAT5 phosphorylation in human MEG-01 cells under hypoxic condition after 3 hrs by Western blotting; type: cell-based
[7] = cells; conditions: Homo sapiens, KU812, 72 h
Description: Antiproliferative activity against human KU812 cells under hypoxic condition after 72 hrs by using CyQUANT GR dye

[8] = target: T1, Signal transducer and activator of transcription 5A (Homo sapiens); test: Inhibition of STAT5 phosphorylation in human MEG-01 cells under normoxic condition after 3 hrs by Western blotting; type: cell-based
[9] = Apparent permeability of the compound at pH 7.4 by PAMPA assay; type: ADME
[10] = system: K562; test: cells; conditions: Homo sapiens, K562, 72 h
Description: Antiproliferative activity against human K562 cells under normoxic condition after 72 hrs by using CyQUANT GR dye

[11] = cells; conditions: Homo sapiens, KU812, 72 h; remark: listed apart in the source
Description: Antiproliferative activity against human KU812 cells under normoxic condition after 72 hrs by using CyQUANT GR dye

[12] = target: Tyrosine-protein kinase ABL1 (Homo sapiens, UniProt P00519)
Chain of Tyrosine-protein kinase ABL1 (P00519 whole entry): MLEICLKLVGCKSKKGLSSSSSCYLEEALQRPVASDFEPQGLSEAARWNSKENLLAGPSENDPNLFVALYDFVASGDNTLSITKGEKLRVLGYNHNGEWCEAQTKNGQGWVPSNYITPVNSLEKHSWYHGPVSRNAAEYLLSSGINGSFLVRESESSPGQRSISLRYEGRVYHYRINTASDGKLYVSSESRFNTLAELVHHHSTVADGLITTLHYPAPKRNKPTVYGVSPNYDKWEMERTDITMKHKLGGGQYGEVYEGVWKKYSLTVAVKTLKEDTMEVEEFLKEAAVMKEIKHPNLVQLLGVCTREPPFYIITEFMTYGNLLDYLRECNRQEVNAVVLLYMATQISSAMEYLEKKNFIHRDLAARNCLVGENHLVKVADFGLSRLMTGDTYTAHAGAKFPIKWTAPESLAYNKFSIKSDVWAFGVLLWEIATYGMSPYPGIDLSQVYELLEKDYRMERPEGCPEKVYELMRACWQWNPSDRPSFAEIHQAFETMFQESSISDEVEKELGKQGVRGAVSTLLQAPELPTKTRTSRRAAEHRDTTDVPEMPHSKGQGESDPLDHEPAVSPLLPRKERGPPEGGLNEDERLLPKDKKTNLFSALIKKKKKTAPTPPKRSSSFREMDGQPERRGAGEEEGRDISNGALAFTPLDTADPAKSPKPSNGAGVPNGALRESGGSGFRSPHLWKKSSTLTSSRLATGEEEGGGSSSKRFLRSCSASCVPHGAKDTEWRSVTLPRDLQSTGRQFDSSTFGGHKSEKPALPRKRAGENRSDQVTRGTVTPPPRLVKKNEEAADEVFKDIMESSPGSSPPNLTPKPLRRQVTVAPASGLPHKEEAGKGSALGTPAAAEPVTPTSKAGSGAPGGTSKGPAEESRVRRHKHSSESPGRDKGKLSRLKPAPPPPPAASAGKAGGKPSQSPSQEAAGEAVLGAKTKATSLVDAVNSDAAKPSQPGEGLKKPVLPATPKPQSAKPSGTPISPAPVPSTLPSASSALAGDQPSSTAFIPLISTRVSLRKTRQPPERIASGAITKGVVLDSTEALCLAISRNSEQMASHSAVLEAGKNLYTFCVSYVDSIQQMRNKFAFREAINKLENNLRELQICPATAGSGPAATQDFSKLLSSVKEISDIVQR
Description: Inhibition of human recombinant c-Abl by filter-binding assay

[13] = target: T1, Signal transducer and activator of transcription 5A (Homo sapiens); test: Inhibition of STAT5 phosphorylation in human KU812 cells under hypoxic condition after 3 hrs by Western blotting; type: cell-based
[14] = system: K562; test: cells; conditions: Homo sapiens, K562, 72 h; remark: listed apart in the source
Description: Antiproliferative activity against human K562 cells under hypoxic condition after 72 hrs by using CyQUANT GR dye

[15] = target: T1, Signal transducer and activator of transcription 5A (Homo sapiens); test: Inhibition of STAT5 phosphorylation in human KU812 cells under normoxic condition after 3 hrs by Western blotting; type: cell-based
[16] = system: K562; test: Induction of HIF1alpha expression in human K562 cells under hypoxic condition assessed as HIF1alpha accumulation after 3 hrs by Western blotting; type: functional, cell-based
[17] = target: T1, Signal transducer and activator of transcription 5A (Homo sapiens); test: Inhibition of STAT5 phosphorylation in human K562 cells under normoxic condition after 3 hrs by Western blotting; type: cell-based
[18] = target: T2, Proto-oncogene tyrosine-protein kinase Src (Homo sapiens, UniProt P12931)
T2 sequence (P12931 2-536 limits assumed): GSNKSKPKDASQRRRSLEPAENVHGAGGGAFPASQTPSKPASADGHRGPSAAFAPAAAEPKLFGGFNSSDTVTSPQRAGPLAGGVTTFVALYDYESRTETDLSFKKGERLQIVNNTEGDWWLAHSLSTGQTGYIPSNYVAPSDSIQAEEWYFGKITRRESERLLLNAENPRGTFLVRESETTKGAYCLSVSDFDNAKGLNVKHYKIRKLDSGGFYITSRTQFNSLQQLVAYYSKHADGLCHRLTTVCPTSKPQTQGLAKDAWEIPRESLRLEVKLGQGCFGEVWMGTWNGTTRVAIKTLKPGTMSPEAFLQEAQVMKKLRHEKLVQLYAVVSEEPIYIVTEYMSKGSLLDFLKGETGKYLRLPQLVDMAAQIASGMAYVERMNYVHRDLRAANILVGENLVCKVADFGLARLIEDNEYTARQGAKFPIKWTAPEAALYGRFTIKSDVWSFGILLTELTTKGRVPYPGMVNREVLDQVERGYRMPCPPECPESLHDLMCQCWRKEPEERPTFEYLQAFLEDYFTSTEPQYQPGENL
Description: (§1) Inhibition of human recombinant c-Src by filter-binding assay

[19] = system: K562; test: Induction of apoptosis in human K562 cells assessed as caspase-3 mediated cleavage of PARP level at 10 uM after 72 hrs under hypoxic condition by immunoblot analysis; type: functional, cell-based
[20] = system: K562; test: Inhibition of carbonic anhydrase 9 mRNA expression in human K562 cells under normoxic condition at 10 uM after 72 hrs by quantitative RT-PCR analysis; type: functional, cell-based
[21] = system: K562; test: Inhibition of carbonic anhydrase 9 mRNA expression in human K562 cells under hypoxic condition at 10 uM after 72 hrs by quantitative RT-PCR analysis; type: functional, cell-based
[22] = system: K562; test: Induction of apoptosis in human K562 cells assessed as caspase-3 activity at 10 uM under hypoxic condition after 72 hrs by fluorescence microplate reader; type: functional, cell-based
[23] = system: K562; test: Induction of apoptosis in human K562 cells assessed as caspase-3 activity at 10 uM under normoxic condition after 72 hrs by fluorescence microplate reader; type: functional, cell-based
[24] = Cytotoxicity against mouse BA/F3 cells expressing p210Bcr-Abl E255K mutant; type: functional; conditions: BaF3, read-out: LD50 (the source's name)
[25] = Cytotoxicity against mouse BA/F3 cells expressing p210Bcr-Abl Y253F mutant; type: functional; conditions: BaF3, read-out: LD50 (the source's name)
[26] = Cytotoxicity against mouse BA/F3 cells expressing wild type p210Bcr-Abl; type: functional; conditions: BaF3, read-out: LD50 (the source's name)
[27] = Cytotoxicity against mouse BA/F3 cells expressing p210Bcr-Abl T315I mutant; type: functional; conditions: BaF3, read-out: LD50 (the source's name)
[28] = target: T2, Proto-oncogene tyrosine-protein kinase Src; remark: listed apart in the source
Description: as §1

| SMILES | solubility [1] [µg/mL] | pIC50 [2] | pIC50 [3] | remaining at 1 h [4] [%] | inhibition [5] | inhibition [6] | inhibition [8] | Papp [9] [×10⁻⁶ cm/s] | pIC50 [10] | pIC50 [11] | inhibition [13] | pIC50 [14] | inhibition [15] | inhibition [17] | also measured |
| --- | --- | --- | --- | --- | --- | --- | --- | --- | --- | --- | --- | --- | --- | --- | --- |
| Clc1ccc(C(Cl)Cn2ncc3c(NCc4ccncc4)ncnc32)cc1 (stereo not drawn) | 12.3 (≈ 30.8 µM) | 4.36 | 4.84 | 90 | Active | Active | Active | 5.4 | 4.90 | 5.00 | Active | 4.69 | Active | Active | pIC50 [7]: < 4.00; pKi [12]: 6.18; Activity [16]: inactive; pKi [18]: 5.41 |
| Clc1cccc(Nc2nc(N3CCOCC3)nc3c2cnn3CC(Cl)c2ccccc2)c1 (stereo not drawn) | 0.13 (≈ 0.277 µM) | 4.82 | 5.11 | 90 | Active | Active | Active | 14.8 | 4.91 | 5.66 | Active | 5.34 | Active | Active | pIC50 [7]: 4.79; Activity [19]: Active; inhibition [20]: Active; inhibition [21]: Active; Activity [22]: Active; pKi [12]: 6.41; Activity [23]: Active; Activity [16]: inactive; pKi [18]: 5.12 |
| OCCNc1nc(NCCc2ccccc2)c2cnn(/C=C\c3ccccc3)c2n1 | 0.4 (≈ 0.999 µM) | 4.47 | 4.89 | 84 |  |  |  | 2.6 | 5.64 |  |  | 5.09 |  |  | pKi [12]: 6.66; pKi [18]: 5.62 |
| Fc1ccc(CNc2ncnc3c2cnn3CC(Cl)c2ccc(F)cc2)cc1 (stereo not drawn) | < 0.04 |  |  | 82 |  |  |  | 11 |  |  |  |  |  |  |  |
| Fc1ccc(CNc2ncnc3c2cnn3CC(Cl)c2ccc(Cl)cc2)cc1 (stereo not drawn) | < 0.04 | 5.21 | 5.21 | 94 | Active | Active | Active |  | 5.04 | 5.09 | Active | 5.55 | Active | Active | CC50 [24]: 0.7 µM; CC50 [25]: 0.7 µM; pIC50 [7]: 4.88; Activity [19]: Active; CC50 [26]: 0.7 µM; Activity [22]: Active; Activity [23]: Active; Activity [16]: inactive; CC50 [27]: 0.7 µM |
| ClC(Cn1ncc2c(NCc3ccccc3)nc(SCCN3CCOCC3)nc21)c1ccccc1 (stereo not drawn) | 1.2 (≈ 2.36 µM) | 4.71 | 4.63 | 95 |  | Active | Active | 9.1 | 5.51 |  | Active | 5.29 | Active |  | pKi [12]: 7.05; pKi [18]: 5.54 |
| Clc1cccc(Nc2nc(SCCN3CCOCC3)nc3c2cnn3CC(Cl)c2ccccc2)c1 (stereo not drawn) | 0.1 (≈ 0.189 µM) |  | 5.21 | 95 | Active | Active | Active |  | 5.35 |  | Active |  | Active | Active |  |
| CC(Cn1ncc2c(Nc3cccc(Cl)c3)ncnc21)c1ccccc1 (stereo not drawn) | < 0.04 |  |  | 75 |  |  |  | 13.5 |  |  |  |  |  |  |  |
| Fc1ccc(C(Cl)Cn2ncc3c(NCc4ccncc4)ncnc32)cc1 (stereo not drawn) |  |  | 4.43 |  |  |  |  |  | 4.44 | 4.25 |  |  |  |  |  |
| Clc1ccc(C(Cl)Cn2ncc3c(NCc4ccccn4)ncnc32)cc1 (stereo not drawn) |  |  | 4.78 |  |  |  |  |  | 4.51 | 4.50 |  |  |  |  |  |
| CS(=O)(=O)c1nc(NCc2ccccc2)c2cnn(CC(Cl)c3ccccc3)c2n1 (stereo not drawn) |  |  | 4.38 |  |  |  |  |  | 4.45 | 4.44 |  |  |  |  |  |
| Fc1ccc(C(Cl)Cn2ncc3c(NCc4ccccn4)ncnc32)cc1 (stereo not drawn) |  |  | 4.62 |  |  |  |  |  | 4.43 | 4.39 |  |  |  |  |  |
| ClC(Cn1ncc2c(NCCc3ccccc3)nc(SCCN3CCOCC3)nc21)c1ccccc1 (stereo not drawn) |  |  |  |  |  |  |  |  |  |  |  |  |  |  | Ki [28]: Not Active |
| ClC(Cn1ncc2c(Nc3ccccc3)nc(SCCN3CCOCC3)nc21)c1ccccc1 (stereo not drawn) |  |  |  |  | Active | Active | Active | 10 | 5.66 |  | Active | 5.33 | Active | Active |  |
